Experimental data from patent US6194173A, “Binding proteins for phosphoinositides, GRP1 or general receptor 1 for phophoinositide” (priority 1999, dated 2001).

Target: T1, PH domain of GRP (Mus musculus, UniProt O08967)
T1 sequence (O08967 239-399): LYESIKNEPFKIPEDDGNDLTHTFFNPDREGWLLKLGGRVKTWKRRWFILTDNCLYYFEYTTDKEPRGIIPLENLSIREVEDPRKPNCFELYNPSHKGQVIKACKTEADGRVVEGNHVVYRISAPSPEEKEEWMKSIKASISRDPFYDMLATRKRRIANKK
Test: Competition for [3H]dioctanoyl PtdIns(3,4,5)P3 binding to the PH domain of GRP
Set-up: GST fused to the PH region of GRP (amino acids 239-399); made in house; host or cells: bacteria
Conditions: competition for [^3 H]dioctanoyl PtdIns(3,4,5)P3
Method: Binding assays were performed as described in (Rameh, L. E. et al., J. Biol. Chem., In Press). Briefly, GST fused to the PH region of GRP (amino acids 239-399) was bound to glutathione immobilized on agarose beads (Sigma). Synthetic [^3 H]-labeled diotanoyl PtdIns(3,4,5)P3 was added, and after one hour the beads were separated from the supernatant by centrifugation. The amount of [^3 H]-PtdIns(3,4,5)P3 bound to the PH domain was calculated by subtracting the amount of free [^3 H] present in supernatants from GST-GRP from the amount of free [^3 H] in supernatants from control GST. The data was fitted to the equation [bound]=Bmax×[free]/(KD + [free]) by least squares curve fit. For the competition assays the beads containing the GST-fusion proteins were incubated with 2.5 μM[^3 H]-labeled dioctanoyl PtdIns(3,4,5)P3 bound was calculated based on the amount of [^3 H] bound to the beads in the absence of competitor. The total [^3 H] bound to the GST control was less then 0.5% of the total [^3 H] bound to GRP PH domain. The data was fitted to the equation % bound=100-n×L/Klapp +L) where n is the % specific binding, L is the concentration of unlabeled lipid added and Klapp is the apparent competitive dissociation constant. The rations of the apparent dissociation constants accurately reflect the ratios of the true dissociation constants under the present experimental conditions (Rameh, L. E. et al., J. Biol. Chem., In Press).
The data depicted in FIG. 8 indicate that receptor signaling through PI3-kinases, which generates PtdIns(3,4,5)P3, may specifically regulate ARF proteins through GRP. In order to further test this, the relative binding affinities of PtdIns(3,4,5)P3 versus PtdIns (4,5)P2, which is constitutively present in cell membranes, for the PH domain of GRP were determined. A GST fusion protein of the PH domain of GRP was incubated with various concentrations of synthetic [^3 H]dioctanoyl PtdIns(3,4,5)P3 and binding was determined (FIG. 9A). These experiments show high affinity binding of this polyphosphoinositide,with a calculated Kd=0.5 μM.

KI(app), fold lower than for PtdIns(4,5)P2: 10-20 fold
Substance: Phosphatidylinositol (3,4,5)-Trisphosphate [PtdIns(3,4,5)P3]
